The test system of one assay is Oncopeltus fasciatus. Set-up: method as in earlier work. As to conditions: cited from earlier work.
The target in assay [1] is T1, butyrylcholinesterase (BChE) from equine serum (Equus caballus, UniProt P81908).
T1 construct: butyrylcholinesterase (BChE) from equine serum (lyophilized powder); purchased Sigma-Aldrich (Milan, Italy); host or cells: equine serum
Briefly: biochemical. From the text:
(§1) The two prevalent forms of cholinesterase in a healthy brain are acetylcholinesterase (AChE) and butyrylcholinesterase (BChE). Ellman’s reaction to analyse the AChE and BChE inhibition by the samples was used as described before.

Assay [2] deals with T2, acetylcholinesterase (AChE) from Electrophorus electricus (Electrophorus electricus, UniProt O42275).
T2 construct: purchased Sigma-Aldrich (Milan, Italy) type VI-s
Briefly: biochemical.
Description: as §1

Assay [3] has as its system aged as well as scopolamine-induced amnesic rats. On the set-up: method as in doi:10.31024/ajpp.2018.4.6.17. Conditions: cited from earlier work.
In a further assay the test system is AChE. On the set-up: method as in doi:10.1016/j.foodchem.2010.10.050. Conditions: isolated from Micromeria cilicica; cited from earlier work.
Another assay deals with BChE. On the set-up: method as in doi:10.1016/j.foodchem.2010.10.050. As to conditions: isolated from Micromeria cilicica; cited from earlier work.
Assay [4] is described as follows: Nitric oxide radical scavenging assay. As to conditions: concentration inhibiting 25% of radicals. As to the method:
All M. diffusa samples were tested for their radical scavenging activity by four different in vitro chemical assays targeted against the biological super oxide anion (O2^−) and nitric oxide (NO) radicals, and the synthetic neutral DPPH and cationic ABTS^+ radicals.

The mark [5] stands for this setting: read-out: AChE IC50 (converted).

Read-outs that look alike come from different tables or passages of the source.

Data on 6 compounds can be found in publication PMC7074199, “Phytochemicals of Minthostachys diffusa Epling and Their Health-Promoting Bioactivities” (Foods, 2020).

One may read the IC50 as the midpoint of a concentration-inhibition curve. In general, inhibition refers to the percentage by which the read-out fell short of the control.

T2 sequence (O42275 24-633): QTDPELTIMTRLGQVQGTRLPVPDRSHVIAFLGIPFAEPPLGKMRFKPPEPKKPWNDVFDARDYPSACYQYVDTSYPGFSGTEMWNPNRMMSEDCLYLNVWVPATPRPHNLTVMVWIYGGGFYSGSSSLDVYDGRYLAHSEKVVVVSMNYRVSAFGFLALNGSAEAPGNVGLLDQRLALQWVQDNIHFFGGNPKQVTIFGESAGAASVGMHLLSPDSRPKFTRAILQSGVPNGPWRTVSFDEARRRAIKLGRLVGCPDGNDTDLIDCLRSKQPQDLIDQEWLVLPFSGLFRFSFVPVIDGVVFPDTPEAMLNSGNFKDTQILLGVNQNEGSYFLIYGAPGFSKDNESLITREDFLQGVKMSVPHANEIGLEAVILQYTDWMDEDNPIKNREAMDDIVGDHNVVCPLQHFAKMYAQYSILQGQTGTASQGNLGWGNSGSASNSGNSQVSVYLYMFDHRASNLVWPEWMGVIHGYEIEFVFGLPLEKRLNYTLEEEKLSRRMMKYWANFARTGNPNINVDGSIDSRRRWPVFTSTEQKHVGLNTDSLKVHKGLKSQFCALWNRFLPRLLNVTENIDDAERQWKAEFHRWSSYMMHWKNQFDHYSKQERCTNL
T1 sequence (P81908 whole entry): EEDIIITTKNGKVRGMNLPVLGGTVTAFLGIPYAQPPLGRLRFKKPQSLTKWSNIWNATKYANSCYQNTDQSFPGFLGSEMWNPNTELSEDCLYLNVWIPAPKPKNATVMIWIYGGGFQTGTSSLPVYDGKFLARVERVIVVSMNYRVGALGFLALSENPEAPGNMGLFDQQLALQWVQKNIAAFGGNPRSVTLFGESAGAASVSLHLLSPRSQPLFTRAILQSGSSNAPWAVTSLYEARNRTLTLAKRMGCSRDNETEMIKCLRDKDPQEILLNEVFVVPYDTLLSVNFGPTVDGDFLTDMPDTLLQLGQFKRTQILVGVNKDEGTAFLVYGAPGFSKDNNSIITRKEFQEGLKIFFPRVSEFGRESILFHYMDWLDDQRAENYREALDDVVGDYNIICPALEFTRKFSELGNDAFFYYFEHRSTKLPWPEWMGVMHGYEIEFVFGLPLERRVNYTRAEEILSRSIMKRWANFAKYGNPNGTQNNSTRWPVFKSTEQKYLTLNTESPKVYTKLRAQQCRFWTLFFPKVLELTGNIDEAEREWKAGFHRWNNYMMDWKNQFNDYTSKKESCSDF

On to `CC(=O)O[C@H]1[C@H]2O[C@@]2(C)CC[C@H]1C(C)C` [(−)-(1S,2R,3R,4S)-1,2-epoxy-1-methyl-4-(1-methylethyl)-cyclohex-3-yl acetate], for which the insecticidal activity entry with Oncopeltus fasciatus was “significant insecticidal activity”.

As to `CC1(C)CC[C@]2(C(=O)O)CC[C@]3(C)C(=CC[C@@H]4[C@@]5(C)C[C@@H](O)[C@H](O)C(C)(C)[C@@H]5CC[C@]43C)[C@@H]2C1` [maslinic acid], the half-inhibitory concentration (IC50) in assay [1] is 10.6 µM; in assay [2], 46.5 µM. As for `COc1ccc2c3c1O[C@H]1C[C@@H](O)C=C[C@@]31CCN(C)C2` [galantamine], the inhibition at 60 µg/mL in assay [1] (read-out: BChE inhibition) was 67.3 ± 2.61%.

As for `C=C(C)[C@@H]1CC[C@]2(C(=O)O)CC[C@]3(C)[C@H](CC[C@@H]4[C@@]5(C)CC[C@H](O)C(C)(C)[C@@H]5CC[C@]43C)[C@@H]12` [betulinic acid], the concentration for half-maximal inhibition (IC50) in assay [2] (setting [5]) was 19.7 µM. For the same compound, the “effect on learning and memory” value in assay [3] is “improves learning and memory”.

Take `C[C@H]1[C@H](C)CC[C@]2(C(=O)O)CC[C@]3(C)C(=CC[C@@H]4[C@@]5(C)CC[C@H](O)C(C)(C)[C@@H]5CC[C@]43C)[C@H]12` [Ursolic acid]: the 50% inhibitory concentration (IC50) was 93.8 µM in the assay on AChE, 83.5 ± 0.94 µM in assay [1] (read-out: BChE IC50), 85.3 ± 5.85 µM in assay [2] (setting [5]) and 41.1 µM in the assay with BChE. Turning to `O=C1O[C@H]([C@@H](O)CO)C(O)=C1O` [ascorbic acid], the “NO IC25” value in assay [4] stood at 4780 ± 90 µg/mL.
